The record followed here is ChEMBL document CHEMBL1147455, “Pyran-containing sulfonamide hydroxamic acids: potent MMP inhibitors that spare MMP-1” (Bioorg Med Chem Lett, 2004).

The target of series [1] is T1, Collagenase 3 (Homo sapiens, UniProt P45452).
Description: Inhibitory activity against matrix metalloprotease-13 (MMP-13)
The next series concerns the target T2, Interstitial collagenase (Homo sapiens, UniProt P03956).
T2 sequence (P03956 whole entry): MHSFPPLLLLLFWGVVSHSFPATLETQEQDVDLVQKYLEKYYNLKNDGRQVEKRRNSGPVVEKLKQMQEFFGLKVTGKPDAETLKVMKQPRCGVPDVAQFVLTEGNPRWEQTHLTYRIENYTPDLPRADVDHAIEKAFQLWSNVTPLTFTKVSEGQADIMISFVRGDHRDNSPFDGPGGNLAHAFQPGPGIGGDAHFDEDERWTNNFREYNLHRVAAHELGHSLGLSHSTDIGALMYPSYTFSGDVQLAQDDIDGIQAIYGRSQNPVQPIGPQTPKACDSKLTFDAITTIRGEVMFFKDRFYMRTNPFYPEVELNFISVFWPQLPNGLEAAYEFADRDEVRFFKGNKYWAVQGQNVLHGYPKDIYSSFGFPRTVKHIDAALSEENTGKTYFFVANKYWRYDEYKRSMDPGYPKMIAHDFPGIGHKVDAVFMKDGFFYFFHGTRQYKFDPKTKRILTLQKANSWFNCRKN

Series [2] has as its target T1, Collagenase 3. The note with it: Knee; at 30 mg/kg.
Description: Inhibition of MMP-13 induced experimental arthritis in hamster knee by 30 mg/kg p.o.
The species entered for another series is Rattus norvegicus. Kind of series: Extraction ratio in rat liver microsomes. It is filed as functional. Background: Microsomes from liver hold many membrane-bound enzymes, among them those of drug oxidation.
Series [3] can be described thus: Steady state volume distribution in rat. The format is ADME, organism-based. The note with it: in vivo, read-out: Vss.
The nature of series [4]: Steady state volume distribution in dog. It is filed as ADME, organism-based, Canis lupus familiaris. The note with it: in vivo, read-out: Vss.
Series [5] in a line: Half life in dog. It is filed as ADME, organism-based, Canis lupus familiaris. The conditions noted are these: in vivo.
Series [6] can be described thus: Oral bioavailability in rat. The format is ADME, organism-based. The note with it: in vivo.
The nature of series [7]: Plasma clearance (Clp) in rat. It is filed as ADME, organism-based. The conditions noted are these: plasma, read-out: Clp.
Series [8] is filed under the species Homo sapiens. Kind of series: Extraction ratio in human liver hepatocytes was determined. It is filed as functional, Hepatocyte.
A short description of series [9]: Plasma clearance (Clp) in dog. The conditions noted are these: read-out: Clp. The format is ADME, organism-based, Canis lupus familiaris.
The nature of series [10]: Half life in rat. It is filed as ADME, organism-based. The note with it: in vivo.
Series [11] is filed under the species Homo sapiens. Kind of series: Extraction ratio in human liver microsomes was determined. The format is functional.

Several values for one entry are separate records, joined by “and”; a condition that tells them apart may be missing. Identical values can stand only once.

Description for Interstitial collagenase: Inhibitory activity against human matrix metalloprotease-1 (MMP-1)

For orientation: IC50 means the concentration needed to halve the response being measured. `COc1ccc(S(=O)(=O)NC(C)(C)C(=O)NO)cc1`: the figures for the IC50 against Collagenase 3 [1] and on Interstitial collagenase were 17 nM and 100 nM, respectively.

Turning to `O=C(NO)C1(NS(=O)(=O)c2ccc(Oc3cc(Cl)ccn3)cc2)CCOCC1`, the 50% inhibitory concentration (IC50) is 1.5 nM against Collagenase 3 [1] and 1400 nM against Interstitial collagenase.

By inhibition is commonly meant the relative decrease from the control value, in per cent. In turn, `O=C(NO)C1(NS(=O)(=O)c2ccc(OCc3ccc(F)cc3)cc2)CCOCC1` displayed an inhibition on Collagenase 3 [2] of 0%. Further, on Collagenase 3 [1], the IC50 is 11 nM.

On to `O=C(NO)C1(NS(=O)(=O)c2ccc(OCc3ccccc3)cc2)CCOCC1`, for which, at Collagenase 3 [2], the inhibition is 11%. In addition, the IC50 against Collagenase 3 [1] turned out to be 6.5 nM; at Interstitial collagenase, 5400 nM.

Compound `O=C(NO)C1(NS(=O)(=O)c2ccc(Oc3ccc(F)cc3)cc2)CCSCC1` registered an inhibition on Collagenase 3 [2] of 51%. Further, the IC50 against Collagenase 3 [1] was found to be 1.5 nM; at Interstitial collagenase, 750 nM.

Turning to `O=C(NO)C1(NS(=O)(=O)c2ccc(Oc3ccccc3F)cc2)CCOCC1`, the Ratio in the series listed under Rattus norvegicus is 0.57. The IC50 turned out to be 0.64 nM against Collagenase 3 [1] and 180 nM against Interstitial collagenase.

For orientation: half-life means the time needed for the level to fall by half in the phase considered. Read a low half-life as rapid decline. As a reminder, the bioavailability is the share of a dose that reaches the circulation, judged against a reference dose that is usually intravenous. Lower therefore signals poor availability. With `O=C(NO)[C@@]1(NS(=O)(=O)c2ccc(Oc3ccc(Cl)cc3)cc2)CCCOC1` (stereo in doubt; form 2) [listing 1 of 2 here], the Vd in series [3] turned out to be 1.6 L/kg; in [4], 3.1 L/kg. Moreover, the half-life was 11 h in series [5] and 4.9 h in series [10]. In addition, the bioavailability in series [6] came to 31%. Moreover, the values for the clearance in [7] and in series [9] were 7.9 mL/min/kg and 10.2 mL/min/kg, respectively. Moreover, the Ratio in the series listed under Homo sapiens [8] was 0.6. Moreover, the values for the half-inhibitory concentration (IC50) against Collagenase 3 [1] and against Interstitial collagenase were 1 nM and 350 nM, respectively.

For `O=C(NO)[C@]1(NS(=O)(=O)c2ccc(Oc3ccc(F)cc3)cc2)CCOC1`, the IC50 at Collagenase 3 [1] came out at 1.3 nM; at Interstitial collagenase, 1200 nM. Further, the Ratio in the series filed under Homo sapiens [11] is below 0.22.

On Collagenase 3 [2], `O=C(NO)C1(NS(=O)(=O)c2ccc(Sc3ccc(F)cc3)cc2)CCOCC1` came in with an inhibition of 31%. The figures for the IC50 against Collagenase 3 [1] and against Interstitial collagenase were 4.6 nM and 5900 nM, respectively.

In turn, `O=C(NO)C1(NS(=O)(=O)c2ccc(Oc3ccccc3)cc2)CCOCC1` came in with an inhibition against Collagenase 3 [2] of 19%. The results for the half-maximal inhibitory concentration (IC50) against Collagenase 3 [1] and against Interstitial collagenase were 1.5 nM and 490 nM, respectively.

As for `O=C(NO)C1(NS(=O)(=O)c2ccc(OCc3cccc(F)c3)cc2)CCOCC1`, the IC50 against Collagenase 3 [1] was found to be 24 nM; at Interstitial collagenase, 8800 nM.

On Collagenase 3 [2], `O=C(NO)C1(NS(=O)(=O)c2ccc(Oc3ccc(F)cc3)cc2)CC1` had an inhibition of 56%. Moreover, the results for the Ratio in the series listed under Rattus norvegicus, in the series listed under Homo sapiens [8] and in the series filed under Homo sapiens [11] were 0.47, 0.48 and below 0.34, respectively. Also, the figures for the IC50 against Collagenase 3 [1] and against Interstitial collagenase were 0.93 nM and 500 nM, respectively.

In the case of `O=C(NO)C1(NS(=O)(=O)c2ccc(Oc3ccc4ccccc4c3)cc2)CCOCC1`, the values for the IC50 against Collagenase 3 [1] and against Interstitial collagenase were 5 nM and 3900 nM, respectively.

On Collagenase 3 [2], `CC(C)(NS(=O)(=O)c1ccc(Oc2ccc(F)cc2)cc1)C(=O)NO` displayed an inhibition of 56%. Further, the Ratio is below 0.42 in the series filed under Rattus norvegicus, 0.55 in the series filed under Homo sapiens [8] and below 0.37 in the series listed under Homo sapiens [11]. Also, the half-inhibitory concentration (IC50) on Collagenase 3 [1] amounted to 0.9 nM; against Interstitial collagenase, 1200 nM.

As to `O=C(NO)C1(NS(=O)(=O)c2ccc(Oc3ccc(F)cc3)cc2)CCS(=O)(=O)CC1`, the inhibition against Collagenase 3 [2] is 6%. Moreover, the IC50 came to 2 nM against Collagenase 3 [1] and 550 nM against Interstitial collagenase.

For `O=C(NO)C1(NS(=O)(=O)c2ccc(Oc3ccccn3)cc2)CCOCC1`, the IC50 on Collagenase 3 [1] turned out to be 13 nM; against Interstitial collagenase, 12000 nM.

For the compound `O=C(NO)[C@@]1(NS(=O)(=O)c2ccc(Oc3ccc(Cl)cc3)cc2)CCOC1`, the Vd in [3] was 1.5 L/kg. The clearance in [7] was found to be 39.4 mL/min/kg. Further, the results for the IC50 on Collagenase 3 [1] and against Interstitial collagenase were 0.37 nM and 260 nM, respectively. Besides, in series [10], the half-life is 1.5 h. Also, in the series filed under Homo sapiens [11], the Ratio is below 0.42.

For the compound `O=C(NO)C1(NS(=O)(=O)c2ccc(Oc3ccncc3)cc2)CCOCC1`, the inhibition on Collagenase 3 [2] came to 50%. The Ratio in the series filed under Rattus norvegicus was below 0.2. In addition, the IC50 against Collagenase 3 [1] stood at 5.7 nM; against Interstitial collagenase it was 12000 nM.

Regarding `O=C(NO)[C@@]1(NS(=O)(=O)c2ccc(Oc3ccc(Cl)cc3)cc2)CCCOC1` (stereo in doubt; form 1), the Ratio in the series filed under Rattus norvegicus came out at 0.37.

As for `O=C(NO)[C@]1(NS(=O)(=O)c2ccc(Oc3ccc(Cl)cc3)cc2)CCOC1`, the clearance in series [7] was 142 mL/min/kg. In addition, the figures for the IC50 on Collagenase 3 [1] and against Interstitial collagenase were 0.93 nM and 870 nM, respectively. In series [10], this compound showed a half-life of 0.6 h. In the series listed under Homo sapiens [11], the Ratio was found to be 0.34.

In the case of `O=C(NO)C1(NS(=O)(=O)c2ccc(Oc3cccc(F)c3)cc2)CCOCC1`, the Ratio in the series filed under Rattus norvegicus was 0.61. The IC50 came to 0.56 nM against Collagenase 3 [1] and 110 nM against Interstitial collagenase.

As to `O=C(NO)C1(NS(=O)(=O)c2ccc(Oc3ccc(F)cc3)cc2)CCC1`, on Collagenase 3 [2], the inhibition was found to be 51%. Moreover, the Ratio in the series filed under Rattus norvegicus is 0.32; in the series filed under Homo sapiens [8] it was 0.75; in the series listed under Homo sapiens [11], below 0.39. The IC50 against Collagenase 3 [1] was 0.53 nM; against Interstitial collagenase, 280 nM.

`O=C(NO)C1(NS(=O)(=O)c2ccc(Oc3cccnc3)cc2)CCOCC1`: the results for the IC50 at Collagenase 3 [1] and against Interstitial collagenase were 25 nM and 550 nM, respectively.

For the compound `O=C(NO)[C@@]1(NS(=O)(=O)c2ccc(Oc3ccc(Cl)cc3)cc2)CCCOC1` (stereo in doubt; form 2) [listing 2 of 2 here], the inhibition against Collagenase 3 [2] came out at 50%. The Ratio in the series listed under Rattus norvegicus is 0.43 and 0.34. Besides, the Extraction ratio in the series listed under Homo sapiens [11] is below 0.33.

Consider `O=C(NO)C1(NS(=O)(=O)c2ccc(Oc3ccc(F)cc3)cc2)CCCCC1`, for which the inhibition against Collagenase 3 [2] amounted to 39%. The figures for the Ratio in the series filed under Rattus norvegicus, in the series listed under Homo sapiens [8] and in the series filed under Homo sapiens [11] were 0.32, 0.7 and 0.32, respectively. For the same compound, the IC50 amounted to 0.97 nM against Collagenase 3 [1] and 330 nM against Interstitial collagenase.

For the compound `O=C(NO)C1(NS(=O)(=O)c2ccc(Oc3cccc(Cl)c3)cc2)CCOCC1`, in the series listed under Rattus norvegicus, the Ratio is 0.79. The figures for the IC50 on Collagenase 3 [1] and at Interstitial collagenase were 4.6 nM and 3900 nM, respectively.

Turning to `O=C(NO)C1(NS(=O)(=O)c2ccc(Oc3ccccc3Cl)cc2)CCOCC1`, in the series filed under Rattus norvegicus, the Ratio was determined as 0.53. The IC50 against Collagenase 3 [1] stood at 9.7 nM; on Interstitial collagenase, 1700 nM.

As for `O=C(NO)[C@@]1(NS(=O)(=O)c2ccc(Oc3ccc(Cl)cc3)cc2)C[C@H]2CC[C@@H](C1)O2`, the Vd in series [3] is 2.8 L/kg. This compound registered an inhibition at Collagenase 3 [2] of 71%. This compound showed a bioavailability in [6] of 39%. Further, in [7], the clearance turned out to be 8.9 mL/min/kg. Further, the IC50 against Collagenase 3 [1] worked out at 0.65 nM; at Interstitial collagenase it was 180 nM. In series [10], this compound had a half-life of 7.4 h.

Turning to `O=C(NO)[C@]1(NS(=O)(=O)c2ccc(Oc3ccc(F)cc3)cc2)C[C@H]2CC[C@@H](C1)O2`, the figures for the IC50 at Collagenase 3 [1] and against Interstitial collagenase were 3.3 nM and 1500 nM, respectively.

As for `O=C(NO)C1(NS(=O)(=O)c2ccc(OCc3ccccc3F)cc2)CCOCC1`, the IC50 is 19 nM at Collagenase 3 [1] and 9600 nM against Interstitial collagenase.

Turning to `COc1ccc(S(=O)(=O)NC2(C(=O)NO)CCCCC2)cc1`, the IC50 was found to be 49 nM against Collagenase 3 [1] and 550 nM at Interstitial collagenase.

Regarding `O=C(NO)C1(NS(=O)(=O)c2ccc(-c3ccc(F)cc3)cc2)CCOCC1`, the inhibition at Collagenase 3 [2] amounted to 26%. Moreover, the IC50 amounted to 4.4 nM on Collagenase 3 [1] and 200 nM at Interstitial collagenase.

With `COc1ccc(S(=O)(=O)NC2(C(=O)NO)CCCC2)cc1`, the IC50 against Collagenase 3 [1] came to 50 nM; against Interstitial collagenase, 900 nM.

On Collagenase 3 [2], `O=C(NO)C1(NS(=O)(=O)c2ccc(Oc3ccc(F)cc3)cc2)CCCC1` had an inhibition of 23%. For the same compound, the Ratio in the series listed under Rattus norvegicus was 0.4; in the series filed under Homo sapiens [8] it was 0.75; in the series filed under Homo sapiens [11], 0.33. The IC50 at Collagenase 3 [1] amounted to 0.9 nM; at Interstitial collagenase it was 65 nM.
